In patent US20240351996A1, “CDK19-SELECTIVE INHIBITORS, AND METHODS OF USE THEREOF” (CZ BIOHUB SF, LLC, priority 2022, published 2024):

Legend:
CDK19/CycC = CDK19/CycC (Homo sapiens, UniProt Q9BWU1); test: LanthaScreen europium kinase binding assay (FRET displacement), CDK19; conditions: for CDK19 Selectivity: CDK19/CDK8 selectivity based on IC50 values; for IC50: his-tagged CDK19/CycC 5 nM, tracer 10 nM, 3 h incubation
Method: (§1) FRET Displacement Assay to Measure IC50: The CDK19/CDK8 IC50 values were measured to evaluate activity and to determine CDK19/CDK8 selectivity. The IC50 values of the disclosed compounds was measured using a LanthaScreen™ europium kinase binding assay (ThermoFisher), as described herein.
To a kinase buffer cocktail solution (i.e., 5× Kinase Buffer A) was added: purified recombinant his-tagged CDK19/CycC protein (5 nM), ATP-competitive kinase inhibitor scaffold kinase tracer Alexa Fluor® 665 (10 nM), biotin anti-his tag antibody (2 nM), LanthaScreen® europium-streptavidin (2 nM). An aliquot of the cocktail solution (10 μL) was added to each well of a LUMITRAC™ 200:384 flat bottom, non-treated microtiter white plate. The plate was then covered to protect light sensitive reagents and incubated for 30 min at room temperature to equilibrate before addition of any inhibitors.
(§2) A serial dilution of the compounds was titrated into each well using an automated liquid handling Staccato integrated system at the following concentration(s) (Log10 Molar [C]): −4.5, −5.0, −5.5, −6.0, −6.5, −7.0, −7.5, −8.0 so that a complete dose-response could be calculated. A Tecan microplate reader infinite m200 instrument was then used to measure the FRET signal of each individual well using an excitation of 317/20 nm, emission europium of 620/12 nm, and emission kinase tracer of 665/12 nm after a 3 h incubation period at room temperature until steady-state kinetics were achieved.
(§3) Results were performed in duplicate and were repeated a total of 3 independent times before data was normalized to the DMSO control group and IC50 values reported.

CDK8 = CDK8 (Homo sapiens, UniProt P49336); test: LanthaScreen europium kinase binding assay (FRET displacement), CDK8
Method: as §1
[…] An aliquot of the cocktail solution (10 μL) was added to each well of a LUMITRAC™ 200:384 flat bottom, non-treated microtiter white plate. The plate was then covered to protect light sensitive reagents and incubated for 30 min at room temperature to equilibrate before addition of any inhibitors.
as §2, §3

Chain of CDK8 (P49336 whole entry): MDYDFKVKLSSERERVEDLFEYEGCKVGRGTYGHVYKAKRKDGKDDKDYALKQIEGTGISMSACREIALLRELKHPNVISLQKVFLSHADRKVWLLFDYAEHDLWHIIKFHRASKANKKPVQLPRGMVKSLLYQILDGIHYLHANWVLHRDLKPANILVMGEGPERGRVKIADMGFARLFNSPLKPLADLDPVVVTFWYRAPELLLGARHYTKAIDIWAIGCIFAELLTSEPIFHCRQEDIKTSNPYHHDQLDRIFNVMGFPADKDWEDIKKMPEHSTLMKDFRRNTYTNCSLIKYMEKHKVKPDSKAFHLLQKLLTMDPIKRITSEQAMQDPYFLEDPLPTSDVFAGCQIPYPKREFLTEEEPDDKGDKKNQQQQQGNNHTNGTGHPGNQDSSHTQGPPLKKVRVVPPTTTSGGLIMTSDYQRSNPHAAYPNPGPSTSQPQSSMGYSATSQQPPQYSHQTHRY
Chain of CDK8 (P24863 whole entry partner): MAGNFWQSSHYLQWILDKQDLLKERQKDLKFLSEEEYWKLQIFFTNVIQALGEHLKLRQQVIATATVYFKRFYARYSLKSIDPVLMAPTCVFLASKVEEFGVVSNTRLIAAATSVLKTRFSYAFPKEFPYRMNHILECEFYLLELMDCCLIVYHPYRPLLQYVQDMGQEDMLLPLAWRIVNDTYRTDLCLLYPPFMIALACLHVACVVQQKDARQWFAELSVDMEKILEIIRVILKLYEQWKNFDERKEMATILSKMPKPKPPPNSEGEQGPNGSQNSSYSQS
Chain of CDK19/CycC (Q9BWU1 whole entry): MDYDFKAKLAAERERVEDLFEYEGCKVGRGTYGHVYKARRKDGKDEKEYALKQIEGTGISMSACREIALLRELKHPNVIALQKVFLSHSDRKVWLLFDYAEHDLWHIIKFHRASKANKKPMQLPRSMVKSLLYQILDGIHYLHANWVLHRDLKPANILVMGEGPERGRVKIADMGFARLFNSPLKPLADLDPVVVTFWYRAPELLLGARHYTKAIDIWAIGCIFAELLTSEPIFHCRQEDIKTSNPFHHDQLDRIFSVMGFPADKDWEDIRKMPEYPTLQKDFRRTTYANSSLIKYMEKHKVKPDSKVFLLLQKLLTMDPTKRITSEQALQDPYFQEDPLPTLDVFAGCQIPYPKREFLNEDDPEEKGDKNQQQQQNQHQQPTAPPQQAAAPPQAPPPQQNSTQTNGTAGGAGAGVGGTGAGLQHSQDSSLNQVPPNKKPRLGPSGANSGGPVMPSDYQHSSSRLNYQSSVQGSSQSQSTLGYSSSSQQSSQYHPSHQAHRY
Chain of CDK19/CycC (P24863 whole entry partner): as the sequence (P24863 whole entry partner) above

Compound | CDK19 Selectivity (CDK19/CycC) | IC50 (CDK19/CycC) [nM] | IC50 (CDK8) [nM]
O=C(c1ccncc1)c1cnc(Nc2ccc(F)cc2)nc1 [Compound A69] | 1.9 | 1410 | 2670
Cc1cc(Nc2cnc(Nc3cccc(C4CC4)c3)nc2)cc(C)n1 [Compound A27] |  | 10000 | 10000
CC(C)Cc1cccc(Nc2ncc(Nc3ccnc(C(F)(F)F)c3)cn2)c1 [Compound A35] |  | 10000 | 10000
Cc1cc(C)cc(-c2cnc(Nc3ccc(CC(C)C)cc3)nc2)c1 [Compound A88] | 2.7 | 557 | 1490
CC(C)Cc1ccc(Nc2ncc(-c3ccncc3)cn2)cc1 [Compound A99] | 5.6 | 1800 | 10000
CC(C)Cc1ccc(Nc2ncc(-c3cc[nH]c(=O)c3)cn2)cc1 [Compound A141] | 1 | 10000 | 10000
CC(C)Cc1ccc(Nc2ncc(-c3cccc(C#N)c3)cn2)cc1 [Compound A92] | 3 | 335 | 1020
CCCc1ccc(Nc2ncc(Nc3cc(C)nc(C)c3)cn2)cc1 [Compound A20] |  | 10000 | 10000
CC(C)Cc1ccc(Nc2ncc(-c3ccc(C#N)cn3)cn2)cc1 [Compound A95] |  | 10000 | 10000
Cc1cc(Nc2ncc(Nc3ccncc3)cn2)ccc1F [Compound A41] | 1 | 8940 | 8940
Cc1cc(Nc2cnc(Nc3ccc(CC4CC4)cc3)nc2)ccn1 [Compound A42] | 2 | 449 | 833
CC(C)Cc1ccc(Nc2ccc(-c3ccncc3)cn2)cc1 [Compound A80] | 3 | 3330 | 10000
CC(C)Cc1ccc(Nc2ncc(Nc3ccncc3C(=O)NC3CCCC3)cn2)cc1 [Compound A146] | 1 | 219 | 178
Cc1cccc(-c2cnc(Nc3ccc(CC(C)C)cc3)nc2)c1 [Compound A86] | 9 | 1110 | 10000
CC(C)Cc1ccc(Nc2ncc(-c3ccc(C#N)cc3)cn2)cc1 [Compound A89] |  | 10000 | 10000
Cc1cc(Nc2cnc(Nc3ccc(CC(C)C)cc3)nc2)c(C)cn1 [Compound A65] | 2 | 1160 | 2270
Cc1ccc(-c2ccc(Nc3ccc(CC(C)C)cc3)nc2)cc1 [Compound A77] | 3.5 | 1080 | 3760
CC(C)Cc1ccc(Nc2ncc(C(C)(O)c3ccncc3)cn2)cc1 (stereo not drawn) [Compound A167] | 4 | 154 | 614
Cc1ccc(-c2cnc(Nc3ccc(CC(C)C)cc3)nc2)cc1 [Compound A103] | 1.3 | 7680 | 10000
Fc1ccc(Nc2ccc(Nc3ccncc3)cn2)cc1 [Compound A84] |  | 10000 | 10000
c1cc(Nc2cnc(Nc3ccc(CC4CC4)cc3)nc2)ccn1 [Compound A45] | 2 | 138 | 214
Cc1cc(Nc2cnc(Nc3ccc(C4CC4)cc3)nc2)cc(C)n1 [Compound A18] |  | 10000 | 10000
Cc1cc(C#N)cc(-c2cnc(Nc3ccc(CC(C)C)cc3)nc2)c1 [Compound A94] | 2 | 438 | 869
Cc1cc(-c2cnc(Nc3ccc(CC(C)C)cc3)nc2)ccc1C#N [Compound A91] | 12 | 798 | 10000
Cc1cc(Nc2cnc(Nc3ccc(C4CC4)cc3)nc2)ccn1 [Compound A17] | 2.8 | 419 | 1160

Molecules with a lower IC50 (CDK19/CycC), results first:

CDK19 Selectivity (CDK19/CycC) | IC50 (CDK19/CycC) [nM] | IC50 (CDK8) [nM] | Compound
≥15 | ≤ 2.5 | 38 | CCc1cnccc1Nc1cnc(Nc2ccc(CC(C)C)cc2)nc1 [Compound A51]
4.5 | 100 | 451 | COc1cc(Nc2cnc(Nc3ccc(CC(C)C)cc3)nc2)ccn1 [Compound A23]
4.2 | 123 | 513 | COc1cc(CC(C)C)ccc1Nc1ncc(Nc2ccncc2)cn1 [Compound A36]
1.1 | 96 | 109 | CCCc1ccc(Nc2ncc(Nc3ccnc4ccccc34)cn2)cc1 [Compound A15]
1 | 106 | 106 | FC(F)C(F)(F)Oc1ccc(Nc2ncc(Nc3ccncc3OC3CCCC3)cn2)cc1 [Compound A67]
1 | 76 | 75 | CC(C)Cc1ccc(Nc2ncc(Nc3ccncc3NC3CCCC3)cn2)cc1 [Compound A163]
1.8 | 3.7 | 6.6 | CC(C)Cc1ccc(Nc2ncc(C(=O)c3ccncc3Cl)cn2)cc1 [Compound A118]
2.6 | 5 | 13 | CC(C)Cc1ccc(Nc2ccc(C(=O)c3ccncc3)cn2)cc1 [Compound A78]
1.1 | 40 | 44 | CC(C)Cc1ccc(Nc2ncc(Nc3ccncc3OC3CCCNC3)cn2)cc1 (stereo not drawn) [Compound A55]
3.8 | 72 | 268 | CC(C)Cc1ccc(Nc2ccc(Nc3ccncc3)cn2)cc1 [Compound A85]
5.5 | 38 | 210 | Cc1nc(Nc2ccc(CC(C)C)cc2)ncc1Nc1ccncc1 [Compound A6]
1.9 | ≤ 2.5 | 4.1 | CC(C)Cc1ccc(Nc2ncc(C(=O)c3ccncc3F)cn2)cc1 [Compound A116]
1 | 67 | 64 | CC(C)Cc1ccc(Nc2ncc(Nc3ccncc3OC3CCCC3(C)C)cn2)cc1 (stereo not drawn) [Compound A157]
 | ≤ 2.5 | 3 | CC(C)Cc1ccc(Nc2ncc(Nc3ccncc3C#N)cn2)cc1 [Compound A149]
2 | 11 | 23 | Cc1cnccc1Nc1cnc(Nc2ccc(CC(C)C)cc2F)nc1 [Compound A59]
≥6 | ≤ 2.5 | 16 | COc1cnccc1Nc1cnc(Nc2ccc(CC(C)C)cc2)nc1 [Compound A50]
≤1 | ≤ 2.5 | ≤ 2.5 | O=C(c1cnc(Nc2ccc(C3CCOCC3)cc2)nc1)c1ccncc1OC1CCCC1 [Compound A179]
3 | 18 | 54 | CC(C)Cc1ccc(Nc2ncc(Nc3ccnc(N)c3)cn2)cc1 [Compound A159]
1 | 7.6 | 7 | COc1cnccc1Nc1cnc(Nc2ccc(CC(C)C)cc2F)nc1 [Compound A61]
1.5 | 131 | 193 | CC(C)Cc1ccc(Nc2ccc(-c3cccnc3)cn2)cc1 [Compound A82]
≥18 | ≤ 2.5 | 46 | CC(C)Cc1ccc(Nc2ncc(C(=O)c3ccncc3)cn2)cc1 [Compound A70]
1 | 3 | 3 | CC(C)Cc1ccc(Nc2ncc(Nc3ccncc3C(F)(F)F)cn2)cc1 [Compound A154]
1.1 | 7.6 | 8.2 | c1cc(Nc2cnc(Nc3ccc(C4CCCC4)cc3)nc2)c(OC2CCCC2)cn1 [Compound A3]
2 | 132 | 276 | Cc1ccc(C#N)cc1-c1cnc(Nc2ccc(CC(C)C)cc2)nc1 [Compound A93]
1.8 | 5.7 | 10 | COc1cc(CC(C)C)ccc1Nc1ncc(C(=O)c2ccncc2)cn1 [Compound A131]
≥14 | ≤ 2.5 | 34 | CC(C)Cc1ccc(Nc2ncc(C(=O)c3ccncc3C3CC3)cn2)cc1 [Compound A72]
 | ≤ 2.5 | 10 | CCOc1ccc(Nc2ncc(Nc3ccncc3C(F)(F)F)cn2)cc1 [Compound A178]
1 | 13 | 15 | Cc1cnccc1Nc1cnc(Nc2ccc(C3CCC3)cc2)nc1 [Compound A147]
3 | 6 | 19 | CC(C)Cc1ccc(Nc2ncc(-c3cccc(-c4ccncc4)c3)cn2)cc1 [Compound A155]
2 | 7 | 13 | CC(C)Cc1ccc(Nc2ncc(C(=O)c3ccncc3OC3CCCC3)cn2)c(F)c1 [Compound A176]
